This is an account of results in ChEMBL document CHEMBL3112584, “Urokinase-type plasminogen activator expression and Rac1/WAVE-2/Arp2/3 pathway are blocked by pterostilbene to suppress cell migration and invasion in MDA-MB-231 cells” (Bioorg Med Chem Lett, 2014).

Structures are written as SMILES. Calls of active or inactive are those of the source. The rule behind the calls is not given here.

Series [1] has as its target Ras-related C3 botulinum toxin substrate 1 (Homo sapiens) (UniProt P63000). In words: Inhibition of Rac1 in human MDA-MB-231 cells at 5 uM after 30 mins by G-LISA activity assay. It is filed as cell-based.
Series [2] has as its target Urokinase-type plasminogen activator (Homo sapiens) (UniProt P00749). In words: Inhibition of uPA activity in human MDA-MB-231 cells at 10 uM. The class given is cell-based. Also noted: scale not given: the % may be the effect or the level left.
The test system of series [3] is MDA-MB-231. In words: Inhibition of cell migration in human MDA-MB-231 reduction of cell assessed as cells migrated into scratched area at 5 uM after 24 hrs by wound healing assay. The class given is functional. Conditions: MDA-MB-231, 24 h.
Series [4] relates to MDA-MB-231. Briefly: Inhibition of cell migration in human MDA-MB-231 cells reduction of cell assessed as cells migrated into scratched area at 2 uM after 24 hrs by wound healing assay. The class given is functional. Conditions: MDA-MB-231, 24 h.
Series [5] concerns MDA-MB-231. In words: Antiinvasion activity in human MDA-MB-231 cells reduction of cell assessed as inhibition of FBS-induced cell invaded to lower surface at 5 uM after 24 hrs. The class given is functional. The conditions noted are these: MDA-MB-231, 24 h.
Series [6] in a line: Cytotoxicity against human MDA-MB-231 cells assessed as cell viability at 40 uM after 24 hrs by MTT assay relative to control. It is filed as cell-based. Conditions: read-out: Activity.
Series [7] addresses Ras-related C3 botulinum toxin substrate 1 (Homo sapiens) (UniProt P63000). Briefly: Inhibition of Rac1-mediated WAVE-2/Arp2/3 expression in human MDA-MB-231 cells after […] by Western blotting analysis. The class given is cell-based.
Series [8] has as its system MDA-MB-231. In words: Down-regulation of uPA mRNA expression in human MDA-MB-231 cells after 24 hrs by RT-PCR analysis. It is filed as functional, cell-based.
Series [9] deals with Ras-related C3 botulinum toxin substrate 1 (Homo sapiens) (UniProt P63000). In words: Inhibition of Rac1 in human MDA-MB-231 cells at 10 uM after 30 mins by G-LISA activity assay. It is filed as cell-based.
The test system of series [10] is MDA-MB-231. In words: Cytotoxicity against human MDA-MB-231 cells assessed as cell viability up to 10 uM after 24 hrs by MTT assay relative to control. The class given is cell-based. The conditions noted are these: mda-mb-231, 24 h.
In series [11] the test system is MDA-MB-231. Briefly: Antiinvasion activity in human MDA-MB-231 cells reduction of cell assessed as inhibition of FBS-induced cell invaded to lower surface at 2 uM after 24 hrs. It is filed as functional. The conditions noted are these: MDA-MB-231, 24 h.
The target of series [12] is Urokinase-type plasminogen activator (Homo sapiens) (UniProt P00749). Briefly: Inhibition of uPA activity in human MDA-MB-231 cells at 5 uM. The class given is cell-based. Also noted: scale not given: the % may be the effect or the level left.
The test system of series [13] is MDA-MB-231. In words: Inhibition of NF-kappaB activation in human MDA-MB-231 cells after 24 hrs by luciferase assay. It is filed as cell-based.
For series [14], the target named is Ras-related C3 botulinum toxin substrate 1 (Homo sapiens) (UniProt P63000). Briefly: Inhibition of Rac1 in human MDA-MB-231 cells at 2 uM after 30 mins by G-LISA activity assay. It is filed as cell-based.
Series [15] relates to MDA-MB-231. In words: Inhibition of cell migration in human MDA-MB-231 cells assessed as reduction of cell migrated into scratched area at 10 uM after 24 hrs by wound healing assay. It is filed as functional. The conditions noted are these: MDA-MB-231, 24 h.
The test system of series [16] is MDA-MB-231. Briefly: Antiinvasion activity in human MDA-MB-231 cells reduction of cell assessed as inhibition of FBS-induced cell invaded to lower surface at 10 uM after 24 hrs. It is filed as functional. The conditions noted are these: MDA-MB-231, 24 h.
The subject of series [17] is MDA-MB-231. In words: Down-regulation of uPAR mRNA expression in human MDA-MB-231 cells at 2 to 10 uM after 24 hrs by RT-PCR analysis. It is filed as functional, cell-based.
The next series is filed under the species Homo sapiens. In words: Inhibition of DNA binding of NF-kappaB (unknown origin) on uPA promoter at 10 uM by ChIP assay.

As to `COc1cc(/C=C/c2ccc(O)cc2)cc(OC)c1` [PTEROSTILBENE], the inhibition was 22% in series [1]; “Dose-dependent effect” in [7]; 27% in [9]; “Dose-dependent effect” in the series on MDA-MB-231 [13]; 14% in series [14]. Further, the Activity in series [2] is 61%; with MDA-MB-231 [8], “Dose-dependent effect”; with MDA-MB-231 [10], “Non-toxic”; in [12], 25%. In addition, the results for the inhibition at 5 µM with MDA-MB-231 [3] and in the series on MDA-MB-231 [5] were 59% and 29%, respectively. In addition, the values for the inhibition at 2 µM with MDA-MB-231 [4] and in the series on MDA-MB-231 [11] were 25% and 20%, respectively. Also, in series [6], the viability at 24 h, 40 µM amounted to 40%. The figures for the inhibition at 10 µM with MDA-MB-231 [15] and in the series on MDA-MB-231 [16] were 76% and 38%, respectively. The outcome in the series on MDA-MB-231 [17] was inactive. In the series filed under Homo sapiens, the inhibition entry was “Active”.
